{
  "source": "patent US20220296722A1",
  "about": "“CONJUGATES AND CONJUGATES FOR USE IN PREVENTING OR TREATING OF BRAIN DAMAGE AND NEURODEGENERATIVE DISEASES” (MEDICORTEX FINLAND OY, priority 2019, published 2022)",
  "key": {"[1]": {"test": "Gross macroscopic examination and weighing of major organs at 24 h after dosing", "type": "in vivo, Male CD-1 (ICR) mice", "method": "(§1) MCF-013 was formulated as a clear solution by dissolving in 10% final volume ethanol and then making up to full volume with saline at concentrations of 0.1, 0.3, 1 and 4 mg provided material/mL. This provided doses of 1, 3, 10 and 40 mg provided material/kg when administered intraperitoneally in 10 ml/kg dosing volumes.\n(§2) Male CD-1 (ICR) mice were acclimatised to the procedure room. Groups of 3 mice were administered with vehicle (ethanol:saline) [10:90], or MCF-013 at 1, 3, 10 or 40 mg/kg intraperitoneally in 10 mL/kg dosing volumes. Doses were administered in an escalating dose order. […] These tissues were then excised and weighed and any with overt macroscopic abnormalities were to be placed in 10 volumes neutral buffered formalin solution (Sigma Cat no: HT501128)."}, "[2]": {"test": "Modified Irwin procedure: overt behavioural and physiological parameters after a single intraperitoneal dose", "type": "in vivo, Male CD-1 (ICR) mice", "settings": "for behavioural or physiological changes (modified Irwin): single dose, 3 mice, assessed 0.25-24 h", "method": "as §1, §2"}},
  "data": [
    {"smiles": "O=C(Nc1ccccc1OCCOc1ccc(O)c(O)c1OC[C@H]1O[C@@H](O)[C@H](O)[C@@H](O)[C@@H]1O)c1cccc(O)c1O", "note": "[MCF-013, N-{o-[2-(2-{[(2R,3S,4S,5R,6R)-3,4,5,6-Tetrahydroxytetrahydro-2Hpyran-2-yl]methoxy}-3,4-dihydroxyphenoxy)ethoxy]phenyl}2,3-dihydroxybenzamide]", "values": [
      {"measurement": "gross macroscopic examination of the major organs", "setting": "[1]; 1 mg/kg intraperitoneally", "value": "caecum of mouse 6 was noted to be slightly distended with air"},
      {"measurement": "organ weights", "setting": "[1]; 1 mg/kg intraperitoneally", "value": "normal"},
      {"measurement": "gross macroscopic examination of the major organs", "setting": "[1]; 3 mg/kg intraperitoneally", "value": "no abnormalities"},
      {"measurement": "organ weights", "setting": "[1]; 3 mg/kg intraperitoneally", "value": "normal"},
      {"measurement": "gross macroscopic examination of the major organs", "setting": "[1]; 10 mg/kg intraperitoneally", "value": "no abnormalities"},
      {"measurement": "organ weights", "setting": "[1]; 10 mg/kg intraperitoneally", "value": "normal"},
      {"measurement": "gross macroscopic examination of the major organs", "setting": "[1]; 40 mg/kg intraperitoneally", "value": "no abnormalities"},
      {"measurement": "organ weights", "setting": "[1]; 40 mg/kg intraperitoneally", "value": "normal"},
      {"measurement": "behavioural or physiological changes (modified Irwin)", "setting": "[2]; 1 mg/kg intraperitoneally", "value": "One of three mice (No. 6) showed slight hunched posture at 0.5 and 1h, and slight piloerection 0.5 h after dosing"},
      {"measurement": "behavioural or physiological changes (modified Irwin)", "setting": "[2]; 3 mg/kg intraperitoneally", "value": "One of three animals (mouse 9) showed slight hunched posture at 0.25 h after dosing"},
      {"measurement": "behavioural or physiological changes (modified Irwin)", "setting": "[2]; 10 mg/kg intraperitoneally", "value": "no behavioural or physiological changes were noted"},
      {"measurement": "behavioural or physiological changes (modified Irwin)", "setting": "[2]; 40 mg/kg intraperitoneally", "value": "no behavioural or physiological changes were noted"},
      {"measurement": "tolerability over a 24 h period", "setting": "[2]; 1, 3, 10 and 40 mg provided material/kg intraperitoneally, mice, compared with ethanol:saline [10:90] vehicle", "value": "well tolerated"}
    ]}
  ]
}
